Key:
[1] = tested on: Multiple myeloma patients; test: ^166Ho-DOTMP plus melphalan with or without TBI and stem cell transplant, Phase I/II (Examples 7, 11, 13); format: in vivo, human
Experimental: Multiple myeloma patients (≦65 yrs. of age) that have responded to initial chemotherapy or have primary refractory disease or chemotherapy responsive relapse, but who are not in refractory relapse are treated. Patients are well hydrated with fluids during the day prior to the diagnostic dose. An initial diagnostic dose of 30 mCi of ^166Ho-DOTMP is administered to confirm the selective localization to the skeleton, establish the in-vivo pharmacokinetics and provide radiation dosimetry estimates for the red marrow. Assuming >15% of the ^166Ho-DOTMP accumulates in bone following the injection, the amount of ^166Ho-DOTMP required for therapy is calculated based on delivering a specified radiation absorbed dose to the marrow. Patients receive the therapeutic dose by intravenous injection over 5-10 minutes, given over 1-3 days >48 hrs after the dosometry (test) dose.
The time line for conducting the investigation is as follows: Test dose ^166Ho-DOTMP (30 mCi); ^166Ho scan image (0, 4-6, 20-24 hr.); Blood samples for dosimetry (10, 30 min, 1, 2, 6, 20-24 hr.); Urine samples (0-6, 6-12, 12-24, 24-48 hr.); and External whole body probe (0, 2, 6, 24 and 48 hr.).
Melphalan is administered 48 hr prior to the predicted PBSC infusion based upon dosimetry assessment from the test dose. PBSC infusion is administered when bone marrow dose from ^166Ho is ≦1 cGy/hr. Patients were treated at 20, 30, 40 and prospectively 50 Gy, and with 140 mg/m^2 and 200 mg/m^2 melphalan.
The MTD was defined as the level that is associated with a true toxicity rate of 20%, where toxicity for these purposes was taken to be grade 3 or greater extramedullary drug related toxicity.
All toxicities encountered during the study will be evaluated according to Bearman criteria (Bearman et al., J Clin Oncol, 6,1562, (1988)). Graft failure is considered a grade 3 toxicity. Graft failure is defined as failure to recover granulocytes to 0.5×10^9/l or platelets 20×10^9/l within 28 days of transplant or a fall to less than these levels for 3 or more consecutive days after day 28 without other apparent cause. Hematopoietic recovery (engraftment) is defined as having a sustained granulocyte count of 0.5×10^9/l for two consecutive counts post transplant and a platelet count 20×10^9/l for seven consecutive counts post transplant, without transfusion support. The first of two counts for the granulocyte count and the first of seven counts for the platelet count are considered the day of engraftment.
Patients undergo blood stem cell infusion at the time when ongoing radiation to the marrow falls to <1 rad/hr, and at least 24 hours after melphalan infusion. The total volume of stored cells is infused into a free flowing IV line primed with normal saline. Patients are premedicated with acetaminophen 650 mg PO and diphenhydramine 50 mg PO or IV. All patients receive conventional supportive care for autologous/syngeneic blood and marrow transplantation, (such as allopurinol, menstrual suppression, prophylactic antibiotics, empiric antibiotics, IV Ig, transfusions of blood products, hyperalimentation, and the like).
Patients, afflicted with multiple myeloma, were treated according to the method of the present invention. The dosage range of radiation from the complex was 460 mCi to 4.5 Ci.
Fifty-three patients received intravenous hydration only, while 30 patients received both IV hydration and continuous bladder irrigation.
In order to achieve a complete response using protocol criteria, a patient must have a complete absence of any myeloma protein in the blood/urine and marrow post treatment. The patient must have normal bone marrow with complete resolution of plasmocytomas and no increase in bone lesions. To meet international standards, this must be maintained for 6 weeks. While response rates to a conventional high dose therapy vary widely, in general for previously treated patients, there is a range of 5-25% CR rate. […]

[2] = Pharmacokinetics and patient specific dosimetry of ^166Ho-DOTMP in patients with breast cancer metastatic to bone (Example 6); format: in vivo, human
Experimental: Eight patients with breast cancer metastatic only to bone initially received a 30 mCi dose of ^166Ho-DOTMP for diagnostic purposes. Pharmacokinetics were assessed via whole body counting, gamma camera imaging, and urine and blood assays for the first 48 hours following injection. Patients were followed with autologous stem cell transplantation for rescue from hematologic toxicity.
Therapy doses were calculated based upon prescribed dose to the red bone marrow using the Medical Internal Radiation Dose (MIRD) technique and percentage localization in the skeleton. Appropriate S-values were provided by Oak Ridge National Laboratory. The desired target dose was 22 Gy to the red marrow calculated by the above technique for each individual. The average red marrow dose was calculated to be 1.97±0.92 cGy/mCi (range: 0.98 cGy/mCi to 3.19 cGy/mCi). Three patients proceeded to therapy, two were disqualified due to low uptake in the skeleton (≦30%; revised qualification: 15%), and three were disqualified for other reasons unrelated to the ^166Ho-DOTMP treatment.

[3] = 140 mg/m^2 melphalan w/ TBI, 20 Gy to marrow
[4] = 140 mg/m^2 melphalan w/ TBI, 30 Gy to marrow
[5] = 140 mg/m^2 melphalan w/ TBI, 40 Gy to marrow
[6] = 140 mg/m^2 melphalan w/o TBI, 20 Gy to marrow
[7] = 140 mg/m^2 melphalan w/o TBI, 30 Gy to marrow
[8] = 140 mg/m^2 melphalan w/o TBI, 40 Gy to marrow
[9] = 200 mg/m^2 melphalan w/o TBI, 20 Gy to marrow
[10] = 200 mg/m^2 melphalan w/o TBI, 30 Gy to marrow
[11] = 200 mg/m^2 melphalan w/o TBI, 40 Gy to marrow
[12] = 40 patients who received 200 mg/m^2 melphalan and were not in CR at treatment
[13] = nine patients, 750+/−10% mCi/m^2
[14] = nine patients, dose 750 mCi/m^2 (±10%)
[15] = patients who received more than 1500 mCi
[16] = patients who received ≦1500 mCi
[17] = ≦30 Gy marrow dose, 35 evaluable patients

## O=P([O-])(O)CN1CCN(CP(=O)(O)O)CCN(CP(=O)([O-])O)CCN(CP(=O)(O)O)CC1.[166Ho] [^166Ho-DOTMP]
[1]; [3]
  Days to ANC > 500: 9 days
  Days to Platelets > 20,000: 12 days
  Number of Patients w/ Grade 3 Toxicity: 0/8
[1]; [4]
  Days to ANC > 500: 11 days
  Days to Platelets > 20,000: 12 days
  Number of Patients w/ Grade 3 Toxicity: 1/8
[1]; [5]
  Days to ANC > 500: 9 days
  Days to Platelets > 20,000: 13 days
  Number of Patients w/ Grade 3 Toxicity: 0/20
[1]; 140 mg/m^2 melphalan w/ TBI, all marrow doses
  Complete Response: 7/17
[1]; [6]
  Days to ANC > 500: 10 days
  Days to Platelets > 20,000: 10 days
  Number of Patients w/ Grade 3 Toxicity: 0/5
[1]; [7]
  Days to ANC > 500: 16 days
  Days to Platelets > 20,000: 10 days
  Number of Patients w/ Grade 3 Toxicity: 0/4
[1]; [8]
  Days to ANC > 500: 12 days
  Days to Platelets > 20,000: 10 days
  Number of Patients w/ Grade 3 Toxicity: 0/7
[1]; 140 mg/m^2 melphalan w/o TBI, all marrow doses
  Complete Response: 3/14
[1]; 200 mg/m^2 melphalan patients, mean follow-up time 39.4 months
  patients alive: Sixty-one
[1]; [9]
  Days to ANC > 500: 10 days
  Days to Platelets > 20,000: 11 days
  Number of Patients w/ Grade 3 Toxicity: 0/4
[1]; [10]
  Days to ANC > 500: 12 days
  Days to Platelets > 20,000: 10 days
  Number of Patients w/ Grade 3 Toxicity: 0/7
[1]; [11]
  Days to ANC > 500: 10.5 days
  Days to Platelets > 20,000: 10 days
  Number of Patients w/ Grade 3 Toxicity: 0/14
[1]; 200 mg/m^2 melphalan w/o TBI, all marrow doses
  Complete Response: 8/9
[1]; [12]
  complete remission: 39%
  partial response: 32%
[1]; 83 patients
  patients who developed grade 3-4 renal toxicity: Twenty-five
[1]; 83 patients, 5-12 months post-therapy
  symptoms of long-term kidney dysfunction: 40%
[1]; Phase I/II studies, to date
  patient deaths: 21
[1]; across all ^166Ho-DOTMP/melphalan±TBI doses, 77 patients with response data
  complete response rate: 35%
[1]; across all doses, 77 patients with response data
  patients with a partial response: Twenty-four
[1]; all patients
  Grade 1-3 hemorrhagic cystitis (HC) observed: 24 patients
[1]; all treated at 40 Gy or higher to the marrow
  patients who developed TTP/HUS: Seven
[1]; [13]
  cases of Grade 3-4 renal toxicities: no cases of Grade 3-4 renal toxicities
  cases of TTP/HUS: no cases of TTP/HUS
[1]; [14]
  2-year survival: 100%
  CR rate: 44.4%
[1]; of the 24 patients with HC
  Grade 1-3 hemorrhagic cystitis (HC), patients treated without continuous bladder irrigation (CBI): 22 patients
[1]; patients administered less than 1500 mCi
  cases of TTP and Grade 3 or high renal toxicity: no reported cases
[1]; patients treated at doses, 675 mCi/m^2
  cases of TTP/HUS: no cases of TTP/HUS occurred
[1]; patients who received less than 1500 mCi
  incidence of sustained renal dysfunction: 23%
[1]; [15]
  CR rate: 36%
  Two-year survival: 67%
[1]; [16]
  CR rate: 32%
  Two-year survival: 77%
[1]; serum creatinine >2 mg/dL twice or >3 mg/dL once
  patients with renal dysfunction not related to TTP/HUS or progressive myeloma: nine
[1]; with melphalan at 200 mg/m^2
  tolerability: well tolerated
[1]; ≦30 Gy marrow dose
  survival of 12 months: 100%
[1]; [17]
  Complete Response: 30%
  partial response: 32%
  progressive disease: None
  stable disease: 32%
[2]; 30 mCi diagnostic dose
  effective skeletal half-life: 19.9 ± 2.5 h
[2]; 30 mCi diagnostic dose, eight patients
  average percentage uptake in the skeleton: 28±12%
[2]; 6 hours post injection
  material present in the urine: Approximately 50%
[2]; 24 hours post injection
  injected dose remaining in whole blood: a small percentage
[2]; biphasic clearance
  whole blood clearance early T1/2: 3 ± 2.4 min
  whole blood clearance late T1/2: 11 ± 4 h
[2]; calculated by MIRD technique
  average red marrow dose: 1.97±0.92 cGy/mCi
[2]; therapy, target 22 Gy to red marrow, three patients
  toxicity: Other than severe hematological suppression, no toxicity was noted

Reference: patent US7691985B2, “Skeletal-targeted radiation to treat bone-associated pathologies” (priority 1999, dated 2010)
